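The concentration for 50% growth inhibition is given as GI50. TGI: total growth inhibition.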
Key:
Test in all cases: inhibition of tumour cell growth, NCI panel, 384-well format
[1] = system: SNB-19 CNS
[2] = system: NCI-H226 lung
[3] = system: A549 NSCLC
[4] = system: SN12C renal
[5] = system: HOP-62 NSCLC
[6] = system: HT29 colon
[7] = system: UO-31 renal
[8] = system: SR leukemia
[9] = system: U251 glioblastoma
[10] = system: OVCAR-8 ovarian
[11] = system: HCC-2998 colon
[12] = system: SF-268 CNS
[13] = system: SK-MEL-5 melanoma
[14] = system: TK-10 renal
[15] = system: 786-0 renal
[16] = system: MALME-3M melanoma
[17] = system: MCF7 breast
[18] = system: IGROV1 ovarian
[19] = system: HOP-92 NSCLC
[20] = system: EKVX NSCLC
[21] = system: COLO 205 colon
[22] = system: SF-539 CNS
[23] = system: NCI-H522 lung
[24] = system: SK-MEL-28 melanoma
[25] = system: MDA-MB-435 melanoma
[26] = system: MOLT-4 leukemia
[27] = system: OVCAR-3 ovarian
[28] = system: RPMI-8226 leukemia
[29] = system: BT-549 breast
[30] = system: HCT-15 colon
[31] = system: KM12 colon
[32] = system: UACC-257 melanoma
[33] = system: HL-60(TB) leukemia
[34] = system: HCT-116 colon
[35] = system: CAKI-1 renal
[36] = system: NCI/ADR-RES ovarian
[37] = system: UACC-62 melanoma
[38] = system: CCRF-CEM leukemia
[39] = system: T-47D breast
[40] = system: A498 renal
[41] = system: HS 578T breast
[42] = system: NCI-H460 NSCLC
[43] = system: NCI-H23 lung
[44] = system: SK-OV-3 ovarian
[45] = system: DU-145 prostate
[46] = system: NCI-H322M lung
[47] = system: K-562 leukemia
[48] = system: LOX IMVI melanoma
[49] = system: SNB-75 CNS
[50] = system: RXF 393 renal
[51] = system: MDA-MB-468 breast
[52] = system: MDA-MB-231 breast
[53] = system: SF-295 CNS
[54] = system: OVCAR-4 ovarian
[55] = system: ACHN renal
[56] = system: PC-3 prostate
[57] = system: SW-620 colon
[58] = system: M14 melanoma
[59] = system: SK-MEL-2 melanoma
[60] = system: OVCAR-5 ovarian

CC/C(=C(/c1ccc(/C=C/C(=O)O)cc1)c1ccc2[nH]ncc2c1)c1ccc(F)cc1Cl
GI50 [1]: 14.4 µM
TGI [1]: 27.5 µM
GI50 [2]: 18.1 µM
TGI [2]: 32.1 µM
GI50 [3]: 10.4 µM
TGI [3]: 22.3 µM
GI50 [4]: 17.1 µM
TGI [4]: 31.6 µM
GI50 [5]: 9.36 µM
TGI [5]: 21.4 µM
GI50 [6]: 16.7 µM
TGI [6]: 30.5 µM
GI50 [7]: 10.1 µM
TGI [7]: 21.8 µM
GI50 [8]: 3000 nM
TGI [8]: 6.35 µM
GI50 [9]: 11.8 µM
TGI [9]: 24.2 µM
GI50 [10]: 15.3 µM
TGI [10]: 28.7 µM
GI50 [11]: 18.3 µM
TGI [11]: 32.3 µM
GI50 [12]: 15.6 µM
TGI [12]: 29 µM
GI50 [13]: 12.6 µM
TGI [13]: 25.2 µM
GI50 [14]: 16.3 µM
TGI [14]: 31.2 µM
GI50 [15]: 12.7 µM
TGI [15]: 25.9 µM
GI50 [16]: 14.8 µM
TGI [16]: 28 µM
TGI [17]: 15.1 µM
GI50 [18]: 15.2 µM
TGI [18]: 29 µM
GI50 [19]: 14.2 µM
TGI [19]: 27.6 µM
GI50 [20]: 14.7 µM
TGI [20]: 28.2 µM
GI50 [21]: 15.1 µM
TGI [21]: 28.7 µM
GI50 [22]: 14.3 µM
TGI [22]: 27.4 µM
GI50 [23]: 14.6 µM
TGI [23]: 27.8 µM
GI50 [24]: 12.5 µM
TGI [24]: 26.1 µM
GI50 [25]: 2710 nM
TGI [25]: 7.22 µM
GI50 [26]: 12.9 µM
TGI [26]: 25.9 µM
GI50 [27]: 14.3 µM
TGI [27]: 27.6 µM
GI50 [28]: 5400 nM
TGI [28]: 16.9 µM
GI50 [29]: 14.7 µM
TGI [29]: 27.9 µM
GI50 [30]: 12.4 µM
TGI [30]: 25.2 µM
GI50 [31]: 14.4 µM
TGI [31]: 27.5 µM
GI50 [32]: 15.1 µM
TGI [32]: 29 µM
GI50 [33]: 6.03 µM
TGI [33]: 18.5 µM
GI50 [34]: 15.3 µM
TGI [34]: 29.4 µM
GI50 [35]: 16.6 µM
TGI [35]: 30.4 µM
GI50 [36]: 14.1 µM
TGI [36]: 27.7 µM
GI50 [37]: 13 µM
TGI [37]: 25.8 µM
GI50 [38]: 10.5 µM
TGI [38]: 22.3 µM
GI50 [39]: 11.9 µM
TGI [39]: 25.2 µM
GI50 [40]: 10.9 µM
TGI [40]: 22.9 µM
GI50 [41]: 15.6 µM
TGI [41]: 29 µM
GI50 [42]: 16.6 µM
TGI [42]: 30.5 µM
GI50 [43]: 14.7 µM
TGI [43]: 27.9 µM
GI50 [44]: 18 µM
TGI [44]: 32.5 µM
GI50 [45]: 15.9 µM
TGI [45]: 29.4 µM
GI50 [46]: 14.2 µM
TGI [46]: 27.4 µM
GI50 [47]: 14.5 µM
TGI [47]: 29.5 µM
GI50 [48]: 10.5 µM
TGI [48]: 22.4 µM
GI50 [49]: 13.7 µM
TGI [49]: 26.6 µM
GI50 [50]: 8.35 µM
TGI [50]: 21 µM
GI50 [51]: 11.5 µM
TGI [51]: 23.8 µM
GI50 [52]: 15.1 µM
TGI [52]: 28.4 µM
GI50 [53]: 4650 nM
TGI [53]: 17 µM
GI50 [54]: 14.2 µM
TGI [54]: 28 µM
GI50 [55]: 13.7 µM
TGI [55]: 26.6 µM
GI50 [56]: 13.7 µM
TGI [56]: 26.7 µM
GI50 [57]: 18.1 µM
TGI [57]: 32.2 µM
GI50 [58]: 7.57 µM
TGI [58]: 20.5 µM

Nc1ccn([C@@H]2S[C@H](CO)[C@@H](O)[C@@H]2F)c(=O)n1
GI50 [1]: 0.0225 µM
TGI [1]: 0.387 µM
GI50 [59]: 56.5 nM
TGI [59]: 201 nM
GI50 [2]: 0.0849 µM
TGI [2]: 0.32 µM
GI50 [3]: 0.0571 µM
TGI [3]: > 100 µM
GI50 [4]: 0.0238 µM
TGI [4]: 0.0695 µM
GI50 [5]: 0.0143 µM
TGI [5]: 0.0548 µM
GI50 [6]: 0.116 µM
TGI [6]: 15.6 µM
GI50 [8]: 139 nM
TGI [8]: 0.271 µM
GI50 [9]: 0.172 µM
TGI [9]: 0.572 µM
GI50 [10]: 0.0134 µM
TGI [10]: 0.0352 µM
GI50 [11]: 0.0152 µM
TGI [11]: 0.255 µM
GI50 [12]: 0.14 µM
TGI [12]: 0.349 µM
GI50 [13]: 0.0536 µM
TGI [13]: 0.252 µM
GI50 [14]: > 100 µM
TGI [14]: > 100 µM
GI50 [15]: 0.0442 µM
TGI [15]: 0.319 µM
GI50 [16]: < 0.01 µM
TGI [16]: 0.316 µM
GI50 [17]: 90.9 nM
TGI [17]: > 100 µM
GI50 [18]: 0.31 µM
TGI [18]: 57.5 µM
GI50 [19]: 0.0252 µM
TGI [19]: 9.02 µM
GI50 [20]: 0.434 µM
TGI [20]: > 100 µM
GI50 [21]: 0.0493 µM
TGI [21]: 0.277 µM
GI50 [22]: 0.138 µM
TGI [22]: 0.352 µM
GI50 [23]: 0.0116 µM
TGI [23]: 0.095 µM
GI50 [24]: 0.0743 µM
TGI [24]: 0.672 µM
GI50 [25]: 383 nM
TGI [25]: > 100 µM
GI50 [26]: < 0.01 µM
GI50 [27]: 0.0473 µM
TGI [27]: 6.89 µM
GI50 [28]: 194 nM
TGI [28]: 0.449 µM
GI50 [29]: 0.0226 µM
TGI [29]: 0.192 µM
GI50 [30]: 0.0557 µM
TGI [30]: > 100 µM
GI50 [60]: 150 nM
GI50 [31]: 0.0862 µM
TGI [31]: > 100 µM
GI50 [32]: 0.318 µM
TGI [32]: 7.78 µM
GI50 [33]: 0.0203 µM
TGI [33]: 0.039 µM
GI50 [35]: 0.0373 µM
TGI [35]: 0.797 µM
GI50 [36]: 0.0165 µM
TGI [36]: 0.0481 µM
GI50 [37]: 0.184 µM
TGI [37]: 0.443 µM
GI50 [38]: < 0.01 µM
TGI [38]: 0.0122 µM
GI50 [39]: 0.31 µM
TGI [39]: 35.5 µM
GI50 [41]: 0.0532 µM
TGI [41]: > 100 µM
GI50 [42]: 0.024 µM
TGI [42]: 0.091 µM
GI50 [43]: 0.0237 µM
TGI [43]: 0.0645 µM
GI50 [44]: 0.0242 µM
TGI [44]: 0.182 µM
GI50 [45]: 0.0243 µM
TGI [45]: 0.0712 µM
GI50 [46]: 0.179 µM
TGI [46]: 50.4 µM
GI50 [49]: 0.054 µM
TGI [49]: 2.68 µM
GI50 [50]: 0.0774 µM
TGI [50]: 0.767 µM
GI50 [51]: 0.0617 µM
TGI [51]: 0.624 µM
GI50 [52]: 0.0203 µM
TGI [52]: 0.6 µM
GI50 [53]: 143 nM
TGI [53]: 0.46 µM
GI50 [54]: > 100 µM
TGI [54]: > 100 µM
GI50 [55]: 0.0238 µM
TGI [55]: 0.0566 µM
GI50 [56]: 0.0559 µM
TGI [56]: > 100 µM
GI50 [57]: 0.25 µM
TGI [57]: > 100 µM
GI50 [58]: 0.0387 µM
TGI [58]: 0.163 µM

— PubChem BioAssay (NCI)
